Laboratory results reported in patent US10626092B2, “Polymorphic forms of 3-[(2-butyl-1-(2-diethylamino-ethyl)-1H-benzoimidazol-5-yl]-N-hydroxy-acrylamide and uses thereof” (MEI PHARMA, INC., priority 2016, dated 2020).
Where a name gives a salt, the structure may show the parent alone.

Legend:
Format in all cases: physicochemical
[1] = Desolvation studies: equilibration at 125° C. in high boiling point solvents; conditions: two days; for Form in Ambient AAC: then accelerated aging conditions
Method: Using solvent equilibration of hydrates in high boiling point solvents has been reported as a method to obtaining desolvated forms. […] The experiments were started with approximately 50 mg of material and 100 μL of solvent. After equilibration, the solids were isolated from the solutions by centrifugation. The solids were allowed to dry under ambient conditions before HT-XRPD analysis was performed. The wet solids were analyzed by HT-XRPD immediately to avoid hydration under ambient conditions or under vacuum.

[2] = Moisture sorption study (DVS analysis)
Method: A moisture sorption study was performed to investigate the physical stability of 3-[2-butyl-1-(2-diethylamino-ethyl)-1H-benzoimidazol-5-yl]-N-hydroxy-acrylamide dihydrochloride 2.5 hydrate upon exposure to several relative humidity profiles. HT-XRPD analyses were performed on the solid material obtained after the DVS analyses. The analytical method is described herein.
Differences in hygroscopicity (moisture uptake) of the various forms of a solid material provided a measure of their relative stability at increasing relative humidity. Moisture sorption isotherms of small samples were obtained using a DVS-1 system from Surface Measurement Systems (London, UK); this instrument is suitable for use with as little as a few milligrams of sample, with an accuracy of 0.1 μg. Several humidity profile were applied as described in each individual experiment. Steps consisted of 10% RH. Weight equilibration per step was set with a minimum holding time of 1 hour (10% relative humidity step). At the end of the DVS experiments, the recovered solid material was measured by HT-XRPD.

[3] = Moisture sorption study (DVS analysis); remark: listed apart in the source
[4] = cycles 45-95-0-45% RH, two cycles
[5] = second DVS: 45% to 95% RH, held at 95% RH for 10 hours

- Form in Ambient ([1]; Anisole): Mono
- Form in Ambient AAC ([1]; Anisole): 2.5
- Form in Ambient ([1]; Cumene): Mono
- Form in Ambient AAC ([1]; Cumene, dihydrochloride monohydrate): 2.5
- Form in Ambient ([1]; N-Methyl-2-pyrrolidone, dihydrochloride monohydrate): No solids
- Form in Ambient ([1]; p-Xylene): Mono
- Form in Ambient AAC ([1]; p-Xylene): 2.5
- water uptake between 85-95% RH [2, 4]: 17%
- weight loss during desorption between 15-0% RH [2, 4]: 10%
- weight loss during desorption between 95-75% RH [2, 4]: 7%
- water uptake at 75% RH ([2]; first cycle of 45-95-0-45% RH): 18%
- water uptake between 85-95% RH [2, 5]: 18%
- weight loss after aging at 95% RH for 2 hours [2, 5]: about 12%
- relative humidity level above which conversion to the 2.5 hydrate (Form 3) occurs ([3]; DVS 45-95% RH): above 85%
- hygroscopicity ([3]; DVS, dihydrochloride monohydrate): hygroscopic
SMILES: CCCCc1nc2cc(/C=C/C(=O)NO)ccc2n1CCN(CC)CC [Form 1, 3-[2-butyl-1-(2-diethylamino-ethyl)-1H-benzoimidazol-5-yl]-N-hydroxy-acrylamide dihydrochloride monohydrate]
- solid form recovered after DVS ([2]; 45-95-0% RH with aging for 5 hours at 0% RH, HT-XRPD): 2.5 hydrate (Form 3) with a small contamination of the hemihydrate (Form 10)
- solid form recovered after DVS ([3]; two sorption-desorption cycles 45-95-0-95-0-45% RH, HT-XRPD, dihydrochloride monohydrate): conversion mainly to the 2.5 hydrate (Form 3)
